{"source": "paper PMC6705239", "about": "(ACS Omega, 2019)", "key": {"[1]": {"test": "in vitro", "conditions": "dog"}, "[2]": {"tested_on": "Influenza A virus H1N1 (H1N1A/Weiss/43)", "test": "microbe, parasite or virus in culture", "format": "cell-based", "conditions": "for EC50: 72 h"}, "[3]": {"tested_on": "NA from influenza A virus H1N1", "format": "biochemical"}, "[4]": {"tested_on": "influenza A virus H1N1", "set-up": "species or system SPF KM mice", "conditions": "mouse, in vivo"}}, "note": "Entries after “also recorded” stand apart in the source; their conditions may differ."}
{"smiles": "COC1=C(c2ccccc2)C(=O)OC1(C)OC", "note": "(stereo not drawn) [Compound 22, 3,4-dimethoxy-4-methyl-2-phenylbutenolide]", "values": [{"measurement": "CC50", "setting": "[1]", "result": "168 ± 9.7", "unit": "µM"}, {"measurement": "EC50", "setting": "[2]; Influenza A virus, H1N1, MDCK", "result": "26.3 ± 4.4", "unit": "µM"}]}
{"smiles": "COC1=C(c2ccc(Cl)cc2)C(=O)OC1(C)OC", "note": "(stereo not drawn) [Compound 24, 2-(4-chlorophenyl)-3,4-dimethoxy-4-methylbutenolide]", "values": [{"measurement": "CC50", "setting": "[1]", "result": "98.3 ± 3.5", "unit": "µM"}]}
{"smiles": "COC1=C(c2ccc(Br)cc2)C(=O)OC1(C)OC", "note": "(stereo not drawn) [Compound 25, 2-(4-bromophenyl)-3,4-dimethoxy-4-methylbutenolide]", "values": [{"measurement": "CC50", "setting": "[1]", "result": "266 ± 18.4", "unit": "µM"}, {"measurement": "EC50", "setting": "[2]; Influenza A virus, H1N1, MDCK", "result": "61.1 ± 5", "unit": "µM"}, {"measurement": "IC50", "setting": "[2]; Influenza A virus, H1N1, MDCK, read-out: IC50 for inhibiting influenza A virus H1N1", "result": 61, "unit": "µM"}]}
{"smiles": "COC1=C(c2ccc(C)cc2)C(=O)OC1(C)OC", "note": "(stereo not drawn) [Compound 26, 3,4-dimethoxy-4-methyl-2-(p-tolyl) butenolide]", "values": [{"measurement": "CC50", "setting": "[1]", "result": "184 ± 5.1", "unit": "µM"}]}
{"smiles": "COC1=C(c2cccc(F)c2)C(=O)OC1(C)OC", "note": "(stereo not drawn) [Compound 28, 2-(3-fluorophenyl)-3,4-dimethoxy-4-methylbutenolide]", "values": [{"measurement": "CC50", "setting": "[1]", "result": "19.8 ± 1", "unit": "µM"}, {"measurement": "EC50", "setting": "[2]; Influenza A virus, H1N1, MDCK", "result": "9.4 ± 0.8", "unit": "µM"}]}
{"smiles": "COC1=C(c2ccccc2F)C(=O)OC1(C)OC", "note": "(stereo not drawn) [Compound 29, 2-(2-fluorophenyl)-3,4-dimethoxy-4-methylbutenolide]", "values": [{"measurement": "CC50", "setting": "[1]", "result": "204 ± 3.2", "unit": "µM"}]}
{"smiles": "COC1=C(c2ccc(F)c(F)c2)C(=O)OC1(C)OC", "note": "(stereo not drawn) [Compound 30, 2-(3,4-difluorophenyl)-3,4-dimethoxy-4-methylbutenolide]", "values": [{"measurement": "CC50", "setting": "[1]", "result": "109 ± 7.6", "unit": "µM"}, {"measurement": "EC50", "setting": "[2]; Influenza A virus, H1N1, MDCK", "result": "33.4 ± 1", "unit": "µM"}]}
{"smiles": "COc1ccc(C2=C(N3CCOCC3)C(C)(OC)OC2=O)cc1", "note": "(stereo not drawn) [Compound 37, 2-(4-methoxyphenyl)-4-methoxy-4-methyl-3-morpholinobutenolide]", "values": [{"measurement": "CC50", "setting": "[1]", "result": "536 ± 15.1", "unit": "µM"}, {"measurement": "inhibition rate of NA activity (in words)", "setting": "[3]", "result": "increased in a dose-dependent manner"}, {"measurement": "body temperature after virus infection", "setting": "[4]", "result": "closed to the control groups"}, {"measurement": "body weight after virus infection", "setting": "[4]", "result": "kept increasing"}, {"measurement": "gross lesions in lungs", "setting": "[4]", "result": "less lesion"}, {"measurement": "lung histopathology (H&E staining)", "setting": "[4]", "result": "less lung inflammation and lesions"}, {"measurement": "viral load / expression of virus gene in lung tissue by qRT-PCR", "setting": "[4]", "result": "inhibit the expression of the influenza A virus gene in the lung; also recorded: Lower viral loads; also recorded: lower than that of the model group"}, {"measurement": "antivirus activity against influenza A H1N1 (in words)", "setting": "[2]", "result": "dose-dependent; also recorded: better antivirus activity than positive control ribavirin"}, {"measurement": "EC50", "setting": "[2]; Influenza A virus, H1N1, MDCK", "result": "6.7 ± 1.3", "unit": "µM"}]}
{"smiles": "COC1=C(c2ccc(Cl)cc2)C(=O)OC1(C)C(O)c1ccc(C)cc1", "note": "(stereo not drawn) [Compound 46]", "values": [{"measurement": "CC50", "setting": "[1]", "result": "75.2 ± 3.6", "unit": "µM"}]}
{"smiles": "COC1=C(c2ccc(Cl)cc2)C(=O)OC1(C)C(O)c1ccccn1", "note": "(stereo not drawn) [Compound 47]", "values": [{"measurement": "CC50", "setting": "[1]", "result": "155 ± 6.8", "unit": "µM"}]}
{"smiles": "COC1=C(c2ccc(Cl)cc2)C(=O)OC1(C)C(O)c1ccc(N2CCOCC2)cc1", "note": "(stereo not drawn) [Compound 48]", "values": [{"measurement": "CC50", "setting": "[1]", "result": "130 ± 8.1", "unit": "µM"}]}
{"smiles": "COC1(C)OC(=O)C(c2ccc(F)cc2)=C1N1CCOCC1", "note": "(stereo not drawn) [Compound 57]", "values": [{"measurement": "CC50", "setting": "[1]", "result": "776 ± 63.2", "unit": "µM"}, {"measurement": "EC50", "setting": "[2]; Influenza A virus, H1N1, MDCK", "result": "14.3 ± 1.7", "unit": "µM"}]}
{"smiles": "COC1(C)OC(=O)C(c2ccc(Cl)cc2)=C1N1CCOCC1", "note": "(stereo not drawn) [Compound 58]", "values": [{"measurement": "CC50", "setting": "[1]", "result": "209 ± 14.1", "unit": "µM"}, {"measurement": "EC50", "setting": "[2]; Influenza A virus, H1N1, MDCK", "result": "34.7 ± 5.9", "unit": "µM"}]}
{"smiles": "COC1(C)OC(=O)C(c2cccc(F)c2)=C1N1CCOCC1", "note": "(stereo not drawn) [Compound 60]", "values": [{"measurement": "CC50", "setting": "[1]", "result": "147 ± 8.1", "unit": "µM"}]}
{"smiles": "CCOC(=O)C1=C[C@@H](OC(CC)CC)[C@H](NC(C)=O)[C@@H](N)C1", "note": "[Os, Oseltamivir, reference compound]", "values": [{"measurement": "CC50", "setting": "[1]", "result": "> 800", "unit": "µM"}, {"measurement": "EC50", "setting": "[2]; Influenza A virus, H1N1, MDCK", "result": "0.28 ± 0.05", "unit": "µM"}]}
{"smiles": "NC(=O)c1ncn([C@@H]2O[C@H](CO)[C@@H](O)[C@H]2O)n1", "note": "[Ri, Ribavirin, reference compound]", "values": [{"measurement": "CC50", "setting": "[1]", "result": "532 ± 20.3", "unit": "µM"}, {"measurement": "EC50", "setting": "[2]; Influenza A virus, H1N1, MDCK", "result": "105 ± 51", "unit": "µM"}]}
